Measurements reported in patent US7846944B2, “Pyrazolo-pyridinone compounds and methods of use thereof” (Amgen Inc., priority 2007, dated 2010).
Where two headings read alike, the source gives them in different places.

What was measured:
[1] = tested on: production of IL-1β, IL-6, and TNF-α by PBMC activated with LPS; assay: Lipopolysaccharide-activated PBMC cytokine production assay; format: cell-based; conditions: read-out: IC50 in the whole blood PMBC assay
Experimental: Lipopolysaccharide-Activated PBMC Cytokine Production Assay
Test compounds were evaluated in vitro for the ability to inhibit the production of IL-1β, IL-6, and TNF-α by PBMC activated with bacterial lipopolysaccharide (LPS). Fresh leukocytes were obtained from a local blood bank, and peripheral blood mononuclear cells (PBMCs) were isolated by density gradient centrifugation on Ficol-Paque Plus (Pharmacia).
Preparation of Test Compound Stock Solutions
All reagents were prepared in RPMI 1640+10% v/v human AB serum+1×Pens/Strep/Glu (assay medium). Test compounds were dissolved in 100% DMSO and serially diluted in 96-well polypropylene round bottom micro titer plates (drug plate). Serial dilutions were then diluted 1:250 into assay medium to a 4× working concentration. Compound serial dilutions were half-log, 10 point titrations with a final starting concentration of 1 μM.
Treatment of Cells with Test Compounds and Activation with Lipopolysaccharide
LPS was prepared to a 4× concentration in assay medium. 100 μl of PBMC (1×10^6 cells/ml) were plated in a 96-well polystyrene flat bottom micro titer tissue culture plate and incubated with 50 μl of 4× compound serial dilution for 1 hour at 37° C., 5% CO2 in a tissue culture incubator. 50 μl 4×LPS or control was added and the plates were incubated at 37° C., 5% CO2 in a tissue culture incubator for 18 hours. The final DMSO concentration was 0.1%. The total volume was 200 μL. The final LPS concentration was 100 ng/mL. After 18 hours culture supernatants were removed and IL-1β, IL-6, and TNF-α presence in the supernatants was quantified using MSD ECL based technology.
Cytokine Measurements 20 μL of culture supernatant were added to MSD plates, and incubated for one hour at room temperature. 20 μL of detection antibody diluted in antibody diluent (1 μg/mL), and 110 μL of 2× Read Buffer P was added, and incubated for one hour at RT. Electrochemiluminescence was measured using the SECTOR HTS Imager (MSD, Gaithersburg, Md.). Data Analysis
Compound IC50 values were calculated as follows: The proportion of cytokine production in the presence of compound compared to the cytokine production in the presence of the DMSO vehicle alone (Hi control) was calculated using the formula: Percent Control (POC)=(compound−average Lo)/(average Hi−average Lo)*100.

[2] = tested on: TNF-α secretion by LPS-treated THP1 cells; assay: Lipopolysaccharide-activated THP1 cell TNF production assay; format: cell-based; conditions: Homo sapiens, read-out: IC50 in the THP-1 cellular TNF production assay
[3] = tested on: Collagen-Induced Arthritis (CIA) Model in Rats; assay: Collagen-induced arthritis (CIA) model in rats; format: in vivo; conditions: 168 h; rat, treated for 7 days from onset of arthritis
Experimental: Collagen-Induced Arthritis (CIA) Model in Rats
Porcine type II collagen (10 mg) was dissolved in 0.1N acetic acid (5 mL) two days prior to use on a rotating plate in the refrigerator. Subsequently, collagen was emulsified 1:1 with Freund's incomplete adjuvant using an emulsification needle and glass syringes yielding a final concentration of 1 mg/mL.
Disease was induced in each animal by intradermal injection of emulsified collagen in IFA at 10 different sites (100 μL per site) over the back. […] At onset (defined as Day 0), rats were randomized to treatment groups and therapy was initiated with drug or vehicle control as noted in table above. Rats were treated for 7 days and were sacrificed on Day 8.

recombinant human p38α = recombinant human p38α (Homo sapiens, UniProt Q16539); assay: Purified and activated recombinant human p38α HTRF kinase assay; format: biochemical; conditions: 1 nM p38α, 50 μM ATP, GST-ATF2 substrate, read-out: p38a IC50
recombinant human p38α, sequence (Q16539 whole entry): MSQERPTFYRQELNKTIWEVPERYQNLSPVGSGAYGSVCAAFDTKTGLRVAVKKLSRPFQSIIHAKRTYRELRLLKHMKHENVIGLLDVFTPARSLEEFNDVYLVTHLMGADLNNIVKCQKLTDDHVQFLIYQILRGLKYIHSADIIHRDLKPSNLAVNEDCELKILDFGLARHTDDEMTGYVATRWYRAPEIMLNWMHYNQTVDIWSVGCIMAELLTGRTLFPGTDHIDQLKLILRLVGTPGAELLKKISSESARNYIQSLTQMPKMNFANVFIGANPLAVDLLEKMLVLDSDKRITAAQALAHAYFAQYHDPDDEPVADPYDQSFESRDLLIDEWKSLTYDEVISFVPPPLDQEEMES

[4] = LPS 100 ng/mL, 18 hours, IL-1β, IL-6, TNF-α
[5] = THP-1, LPS, 3 hours, THP1 cells

| IC50 [2, 5] | IC50 (recombinant human p38α) | SMILES | IC50 [1, 4] | ED50 [3] | IC50 ([1]; 18 h) | IC50 ([2]; THP-1, 3 h) |
| --- | --- | --- | --- | --- | --- | --- |
| ≤ 175 nM |  | Cc1ccc(C(=O)NC2CC2)cc1-c1cc2cnn(-c3c(F)cccc3F)c2n(C)c1=O [Example 7, N-cyclopropyl-3-(1-(2,6-difluorophenyl)-7-methyl-6-oxo-6,7-dihydro-1H-pyrazolo[3,4-b]pyridin-5-yl)-4-methylbenzamide] | ≤ 125 nM | 0.01 mg/kg |  |  |
|  |  | Cc1ccc(C(=O)NC2CC2)cc1-c1cc2cnn(-c3ccc(F)cc3F)c2n(C)c1=O [Example 13, N-cyclopropyl-3-(1-(2,4-difluorophenyl)-7-methyl-6-oxo-6,7-dihydro-1H-pyrazolo[3,4-b]pyridin-5-yl)-4-methylbenzamide] |  | 0.02 mg/kg | ≤ 125 nM | ≤ 175 nM |
| ≤ 175 nM | 3.4 nM | Cc1ccc(C(N)=O)cc1-c1cc2cnn(-c3c(F)cccc3F)c2n(C)c1=O [Example 44, 3-(1-(2,6-difluorophenyl)-7-methyl-6-oxo-6,7-dihydro-1H-pyrazolo[3,4-b]pyridin-5-yl)-4-methylbenzamide] | ≤ 125 nM | 0.07 mg/kg |  |  |
